Assay results: US20240148821A1, “PHARMACEUTICAL USE OF CYCLIC PEPTIDE COMPOUND” (CHUGAI SEIYAKU KABUSHIKI KAISHA, priority 2021, published 2024)
Numbered stars: 1 amine (or outer) side, 2 acyl side, 3 side chain; on linkers, the order of the positions; unused ones are H or OH. Bridge positions count the residues as written; N and C are the ends. Square brackets hold non-standard residues; d marks the D form. Peptide text beside a SMILES is read from it. * marks the point of attachment. hPhe(3-Cl-4-CF3) = N[C@@H](CCc1ccc(C(F)(F)F)c(Cl)c1)C(=O)O; hPhe(3-F,4-CF3) = N[C@@H](CCc1ccc(C(F)(F)F)c(F)c1)C(=O)O; Pro(cis-4-Ph) = O=C(O)[C@@H]1C[C@H](c2ccccc2)CN1; Phe(2-F,5-Br) = N[C@@H](Cc1cc(Br)ccc1F)C(=O)O; NMeAbu(4,4,4-F3) = CN[C@@H](CC(F)(F)F)C(=O)O; NMePhe(4-Cl) = CN[C@@H](Cc1ccc(Cl)cc1)C(=O)O; NMePhe(4-Me) = CN[C@@H](Cc1ccc(C)cc1)C(=O)O; X135 = O=C([C@H](Cc1cc(F)ccc1F)N[*:1])[*:2]; NMePhe(4-F) = CN[C@@H](Cc1ccc(F)cc1)C(=O)O; NMeGly(cPent) = CN[C@H](C(=O)O)C1CCCC1; Phe(2-Cl) = N[C@@H](Cc1ccccc1Cl)C(=O)O; Phe(3-I) = N[C@@H](Cc1cccc(I)c1)C(=O)O; NMe3Pal = CN[C@@H](Cc1cccnc1)C(=O)O; NMeY = CN[C@@H](Cc1ccc(O)cc1)C(=O)O; NMeCha = CN[C@@H](CC1CCCCC1)C(=O)O; NEtLeu = CCN[C@@H](CC(C)C)C(=O)O; NMeChg = CN[C@H](C(=O)O)C1CCCCC1; NMeD = CN[C@@H](CC(=O)O)C(=O)O; NMeL = CN[C@@H](CC(C)C)C(=O)O; NMeV = CN[C@H](C(=O)O)C(C)C; d(β3hA) = C[C@@H](N)CC(=O)O; NMeAbu = CC[C@H](NC)C(=O)O; Morpholide = C1CN(*)CCO1; NMeA = CN[C@@H](C)C(=O)O; NMeAib = CNC(C)(C)C(=O)O; Nle = CCCC[C@H](N)C(=O)O; Piperidide = C1CCN(*)CC1; dNMeA = CN[C@H](C)C(=O)O; Ac5c = NC1(C(=O)O)CCCC1; Aze = O=C(O)[C@@H]1CCN1; Sar = CNCC(=O)O

System: Human pancreatic cancer cell line AsPC-1 (G12D mutation Kras)
Experiment: AsPC-1 cell growth inhibition (AsPC-1 CGI)
Format: cell-based
Settings: read-out: AsPC-1 cell growth inhibition, 50% growth inhibitory concentration (IC50 value); 96 hours, CellTiter-Glo, values classified in ranges
Method: Test compounds were serially dilated with dimethyl sulfoxide, and 200 nL was then dispensed to a U-bottom 96-well plate using Labcyte Echo. […] The cell suspension was dispensed to a. plate containing a test compound at 100 μL per well and incubated at 37° C. in a 5% carbon dioxide gas incubator. 96 hours later, 80 μL of CellTiter-Glo (Promega) was added to each well and fluorescence was measured.

| Structure (SMILES) | IC50 |
| --- | --- |
| CC[C@H](C)[C@@H]1NC(=O)[C@H](CC(C)C)N(C)C(=O)C[C@@H](C(=O)N2CCCCC2)N(C)C(=O)[C@H](CC(C)C)NC(=O)C(C)(C)N(C)C(=O)[C@H](Cc2ccccc2Cl)NC(=O)[C@H](Cc2cccc(I)c2)NC(=O)CN(C)C(=O)[C@H](Cc2ccc(C)cc2)N(C)C(=O)CN(C)C(=O)CN(C)C1=O [Compound 706] ([NMeL]I[Sar][Sar][NMePhe(4-Me)][Sar][Phe(3-I)][Phe(2-Cl)][NMeAib]L[NMeD]-Piperidide; lactam N-11) | > 500 nM |
| CC[C@H](C)[C@@H]1NC(=O)[C@H](C)N(C)C(=O)C[C@@H](C)NC(=O)[C@H](C2CCCC2)N(C)C(=O)C2(CCCC2)NC(=O)[C@@H]2CCCN2C(=O)[C@H](CCc2ccc(C(F)(F)F)c(Cl)c2)NC(=O)[C@@H](C)N(C)C(=O)[C@H](Cc2ccc(F)cc2)N(C)C(=O)[C@@H]2CCN2C(=O)[C@H](C)N(C)C1=O [Compound 584] (cyclo([Ac5c][NMeGly(cPent)][d(β3hA)][NMeA]I[NMeA][Aze][NMePhe(4-F)][dNMeA][hPhe(3-Cl-4-CF3)]P)) | > 500 nM |
| CC[C@H](C)[C@@H]1NC(=O)[C@H](CC(C)C)N(CC)C(=O)C[C@@H](C(=O)N(C)C)N(C)C(=O)[C@H](C2CCCC2)N(C)C(=O)C2(CCCC2)NC(=O)[C@@H]2CCCN2C(=O)[C@H](CCc2ccc(C(F)(F)F)c(F)c2)NC(=O)CN(C)C(=O)[C@H](CC2CCCCC2)N(C)C(=O)[C@@H]2CCN2C(=O)[C@H](C)N(C)C1=O [Compound 1324] ([NEtLeu]I[NMeA][Aze][NMeCha][Sar][hPhe(3-F,4-CF3)]P[Ac5c][NMeGly(cPent)][NMeD]-NMe2; lactam N-11) | ≤ 20 nM |
| CC[C@H](C)[C@@H]1NC(=O)[C@H](CC(C)C)N(C)C(=O)C[C@@H](C(=O)N2CCCCC2)N(C)C(=O)[C@H](C2CCCCC2)N(C)C(=O)[C@H](C)NC(=O)[C@@H]2CCCN2C(=O)[C@H](CCc2ccc(C(F)(F)F)c(Cl)c2)NC(=O)CN(C)C(=O)[C@H](CC2CCCCC2)N(C)C(=O)CN(C)C(=O)CN(C)C1=O [Compound 591] ([NMeL]I[Sar][Sar][NMeCha][Sar][hPhe(3-Cl-4-CF3)]PA[NMeChg][NMeD]-Piperidide; lactam N-11) | > 500 nM |
| CC[C@H](C)[C@@H]1NC(=O)[C@H](C)N(C)C(=O)C[C@@H](C(=O)N2CCOCC2)N(C)C(=O)[C@H](C2CCCCC2)N(C)C(=O)C2(CCCC2)NC(=O)[C@H](Cc2cccnc2)N(C)C(=O)[C@H](CCc2ccc(C(F)(F)F)c(Cl)c2)NC(=O)CN(C)C(=O)[C@H](CC2CCCCC2)N(C)C(=O)[C@@H]2CCN2C(=O)CN(C)C1=O [Compound 1703] ([NMeA]I[Sar][Aze][NMeCha][Sar][hPhe(3-Cl-4-CF3)][NMe3Pal][Ac5c][NMeChg][NMeD]-Morpholide; lactam N-11) | > 500 nM |
| CCCC[C@@H]1NC(=O)[C@H](Cc2cc(Br)ccc2F)NC(=O)CN(C)C(=O)[C@H](Cc2ccc(OC)cc2)N(C)C(=O)[C@@H]2CCN2C(=O)[C@H](C)N(C)C(=O)[C@H]([C@@H](C)CC)NC(=O)[C@H](CC)N(C)C(=O)C[C@@H](C(=O)N2CCCCC2)N(C)C(=O)[C@H](CC(C)C)NC(=O)C(C)(C)N(C)C1=O [Compound 1177] ([NMeAbu]I[NMeA][Aze][NMeY](Me)[Sar][Phe(2-F,5-Br)][Nle][NMeAib]L[NMeD]-Piperidide; lactam N-11) | > 500 nM |
| CC[C@H](C)[C@@H]1NC(=O)[C@H](C(C)C)N(C)C(=O)C[C@@H](C)NC(=O)[C@H](CC(C)C)N(C)C(=O)C2(CCCC2)NC(=O)[C@H](CC(C)C)N(C)C(=O)[C@H](CCc2ccc(C(F)(F)F)c(F)c2)NC(=O)CN(C)C(=O)[C@H](Cc2ccc(Cl)cc2)N(C)C(=O)CN(C)C(=O)CN(C)C1=O [Compound 851] (cyclo([Ac5c][NMeL][d(β3hA)][NMeV]I[Sar][Sar][NMePhe(4-Cl)][Sar][hPhe(3-F,4-CF3)][NMeL])) | > 500 nM |
| CC[C@H](C)[C@@H]1NC(=O)[C@H](CC(C)C)N(C)C(=O)C[C@@H](C(=O)N2CCCCC2)N(C)C(=O)[C@H](C2CCCCC2)N(C)C(=O)C2(CCCC2)NC(=O)[C@@H]2CCCN2C(=O)[C@H](CCc2ccc(C(F)(F)F)c(Cl)c2)NC(=O)CN(C)C(=O)[C@H](CC(F)(F)F)N(C)C(=O)CN(C)C(=O)CN(C)C1=O [Compound 1841] ([NMeL]I[Sar][Sar][NMeAbu(4,4,4-F3)][Sar][hPhe(3-Cl-4-CF3)]P[Ac5c][NMeChg][NMeD]-Piperidide; lactam N-11) | > 500 nM |
| CC[C@H](C)[C@@H]1NC(=O)[C@H](CC(C)C)N(C)C(=O)C[C@@H](C(=O)N2CCCCC2)N(C)C(=O)[C@H](C2CCCCC2)N(C)C(=O)C2(CCCC2)NC(=O)[C@@H]2C[C@H](c3ccccc3)CN2C(=O)[C@H](CCc2ccc(C(F)(F)F)c(Cl)c2)NC(=O)CN(C)C(=O)[C@H](CC2CCCCC2)N(C)C(=O)[C@@H]2CCCN2C(=O)CN(C)C1=O [Compound 1096] ([NMeL]I[Sar]P[NMeCha][Sar][hPhe(3-Cl-4-CF3)][Pro(cis-4-Ph)][Ac5c][NMeChg][NMeD]-Piperidide; lactam N-11) | > 500 nM |
| CCCC[C@@H]1NC(=O)[C@H](Cc2cc(F)ccc2F)NC(=O)CN(C)C(=O)[C@H](Cc2ccc(OC)cc2)N(C)C(=O)[C@@H]2CCN2C(=O)[C@H](C)N(C)C(=O)[C@H]([C@@H](C)CC)NC(=O)[C@H](CC)N(C)C(=O)C[C@@H](C(=O)N2CCCCC2)N(C)C(=O)[C@H](CC(C)C)NC(=O)C(C)(C)N(C)C1=O [Compound 1268] ([NMeAbu]I[NMeA][Aze][NMeY](Me)[Sar][X135][Nle][NMeAib]L[NMeD]-Piperidide; lactam N-11) | > 500 nM |
